Data as given in patent publication US10626125B2, “1,1,1-trifluoro-3-hydroxypropan-2-yl carbamate derivatives as MAGL inhibitors” (PFIZER INC., priority 2017, dated 2020).
pIC50: −log10 of the molar value. Where two headings read alike, the source gives them in different places.

Columns and labels:
[1] = molecular target: T1, human recombinant Monoacylglycerol Lipase (Homo sapiens, UniProt Q99685); test: MAGL enzymatic assay (IC50; 7-HCA substrate added at T=0 min or T=30 min); format: biochemical; conditions: geometric mean of 2-5 determinations unless otherwise indicated
T1 sequence (Q99685 1-303): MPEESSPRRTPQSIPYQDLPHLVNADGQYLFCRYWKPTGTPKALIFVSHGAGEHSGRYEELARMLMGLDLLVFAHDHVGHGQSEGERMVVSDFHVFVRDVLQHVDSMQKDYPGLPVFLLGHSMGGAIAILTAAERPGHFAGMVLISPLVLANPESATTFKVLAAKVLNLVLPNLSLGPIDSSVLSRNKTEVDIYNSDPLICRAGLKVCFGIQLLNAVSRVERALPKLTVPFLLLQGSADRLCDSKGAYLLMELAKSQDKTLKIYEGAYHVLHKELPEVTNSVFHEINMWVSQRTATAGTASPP

[2] = molecular target: T1, human recombinant Monoacylglycerol Lipase; test: MAGL inactivation (kinact/KI from enzyme progress curves, T=0 min protocol); conditions: from plot of Kobs vs. compound concentration, geometric mean of 2-5 determinations (b: ≥6)
[3] = MAGL (T = 30 min) IC50, substrate 7-HCA added after 30 minute incubation (T=30 min)
[4] = substrate 7-HCA added immediately (T=0 min), read-out: MAGL (T = 0 min) IC50

| SMILES | pIC50 [1, 3] | pIC50 [1, 4] | MAGL kinact/KI [2] |
| --- | --- | --- | --- |
| O=C(O[C@H](CO)C(F)(F)F)N1CCC2(CC1)CC(c1ccccn1)CO2 (single isomer, unassigned) [Example 41] | 8.15 | 7.12 | 13200 1/s per M |
| O=C(O[C@H](CO)C(F)(F)F)N1CCC2(CC1)CC(Oc1ccccn1)C2 [Example 87, (2R)-1,1,1-trifluoro-3-hydroxypropan-2-yl 2-(pyridin-2-yloxy)-7-azaspiro[3.5]nonane-7-carboxylate] | 8.70 | 7.59 | 32600 1/s per M |
| O=C(O[C@H](CO)C(F)(F)F)N1CCC2(CC1)CC(c1ccc(C(F)(F)F)cn1)CO2 (single isomer, unassigned) [Example 40] | 8.52 | 8.05 | 21800 1/s per M |
| CN(C(=O)C1CCCC1)[C@H]1COC2(CCN(C(=O)O[C@H](CO)C(F)(F)F)CC2)C1 [Example 5, (2R)-1,1,1-Trifluoro-3-hydroxypropan-2-yl (3R)-3-[(cyclopentylcarbonyl)(methyl)amino]-1-oxa-8-azaspiro[4.5]decane-8-carboxylate] | 8.15 | 7.17 | 5530 1/s per M |
| O=C(O[C@H](CO)C(F)(F)F)N1CCC2(CC1)CC(c1ccc(C(F)(F)F)cn1)C2 [Example 79, (2R)-1,1,1-trifluoro-3-hydroxypropan-2-yl 2-[5-(trifluoromethyl)pyridin-2-yl]-7-azaspiro[3.5]nonane-7-carboxylate] | 9.00 | 8.10 | 63500 1/s per M |
| CN(C(=O)CC1CC1)C1CC2(CCN(C(=O)O[C@H](CO)C(F)(F)F)CC2)C1 [Example 43, (2R)-1,1,1-trifluoro-3-hydroxypropan-2-yl 2-[(cyclopropylacetyl)(methyl)amino]-7-azaspiro[3.5]nonane-7-carboxylate] | 8.70 | 7.54 | 18500 1/s per M |
| O=C(O[C@H](CO)C(F)(F)F)N1CCC2(CC1)CC(n1cc(C(F)F)cn1)C2 [Example 66, (2R)-1,1,1-trifluoro-3-hydroxypropan-2-yl 2-[4-(difluoromethyl)-1H-pyrazol-1-yl]-7-azaspiro[3.5]nonane-7-carboxylate] | 8.40 | 7.40 | 15700 1/s per M |
| N#Cc1ccc(F)c(C2COC3(CCN(C(=O)O[C@H](CO)C(F)(F)F)CC3)C2)c1 (single isomer, unassigned) [Example 30] | 8.40 | 7.27 | 14400 1/s per M |
| O=C(O[C@H](CO)C(F)(F)F)N1CCC2(CC1)CC(c1ccccn1)C2 [Example 81, (2R)-1,1,1-trifluoro-3-hydroxypropan-2-yl 2-(pyridin-2-yl)-7-azaspiro[3.5]nonane-7-carboxylate] | 8.40 | 7.35 | 20400 1/s per M |
| O=C(O[C@H](CO)C(F)(F)F)N1CCC2(CC1)CC(n1cc(F)cn1)C2 [Example 64, (2R)-1,1,1-trifluoro-3-hydroxypropan-2-yl 2-(4-fluoro-1H-pyrazol-1-yl)-7-azaspiro[3.5]nonane-7-carboxylate] | 8.05 | 7.02 | 6260 1/s per M |
| N#Cc1ccc([C@H]2COC3(CCN(C(=O)O[C@H](CO)C(F)(F)F)CC3)C2)cc1F [Example 27, (2R)-1,1,1-trifluoro-3-hydroxypropan-2-yl (3S)-3-(4-cyano-3-fluorophenyl)-1-oxa-8-azaspiro[4.5]decane-8-carboxylate] | 8.52 | 7.77 | 22800 1/s per M |
| O=C(O[C@H](CO)C(F)(F)F)N1CCC2(CC1)CC(Oc1cc(C(F)F)ccn1)C2 [Example 89, (2R)-1,1,1-trifluoro-3-hydroxypropan-2-yl 2-{[4-(difluoromethyl)pyridin-2-yl]oxy}-7-azaspiro[3.5]nonane-7-carboxylate] | 9.10 | 8.10 | 31900 1/s per M |
| COc1cc(C2CC3(CCN(C(=O)O[C@H](CO)C(F)(F)F)CC3)C2)ccn1 [Example 47, (2R)-1,1,1-trifluoro-3-hydroxypropan-2-yl 2-(2-methoxypyridin-4-yl)-7-azaspiro[3.5]nonane-7-carboxylate] | 8.70 | 7.77 | 17100 1/s per M |
| O=C(O[C@H](CO)C(F)(F)F)N1CCC2(CC1)CC(c1cccc(C(F)F)n1)C2 [Example 77, (2R)-1,1,1-trifluoro-3-hydroxypropan-2-yl 2-[6-(difluoromethyl)pyridin-2-yl]-7-azaspiro[3.5]nonane-7-carboxylate] | 9.22 | 8.40 | 82100 1/s per M |
| O=C(O[C@H](CO)C(F)(F)F)N1CCC2(CC1)CC(c1ccc(C(F)F)nc1)C2 [Example 82, (2R)-1,1,1-trifluoro-3-hydroxypropan-2-yl 2-[6-(difluoromethyl)pyridin-3-yl]-7-azaspiro[3.5]nonane-7-carboxylate] | 8.70 | 7.62 | 19300 1/s per M |
| O=C(O[C@H](CO)C(F)(F)F)N1CCC2(CC1)CC(n1cc(C(F)(F)F)cn1)CO2 (single isomer, unassigned) [Example 8] | 7.80 | 6.76 | 2880 1/s per M |
| O=C(O[C@H](CO)C(F)(F)F)N1CCC2(CC1)CC(Oc1cccc(C(F)F)c1)C2 [Example 60, (2R)-1,1,1-trifluoro-3-hydroxypropan-2-yl 2-[3-(difluoromethyl)phenoxy]-7-azaspiro[3.5]nonane-7-carboxylate] | 9.52 | 8.70 | 267000 1/s per M |
| O=C(O[C@H](CO)C(F)(F)F)N1CCC2(CCC(n3cc(F)cn3)CO2)CC1 (single isomer, unassigned) [Example 70] | 8.70 | 7.66 | 40400 1/s per M |
| N#Cc1ccc(F)c(C2COC3(CCN(C(=O)O[C@H](CO)C(F)(F)F)CC3)C2)c1 (single isomer, unassigned) [Example 29] | 7.77 | 6.74 | 3250 1/s per M |
| O=C(O[C@H](CO)C(F)(F)F)N1CCC2(CCC(c3ccc(F)cn3)CO2)CC1 (single isomer, unassigned) [Example 74] | 8.22 | 7.16 | 7140 1/s per M |
| O=C(O[C@H](CO)C(F)(F)F)N1CCC2(CC1)CC(n1cccn1)C2 [Example 56, (2R)-1,1,1-trifluoro-3-hydroxypropan-2-yl 2-(1H-pyrazol-1-yl)-7-azaspiro[3.5]nonane-7-carboxylate] | 7.52 | 6.51 | 1420 1/s per M |
| N#Cc1cccc(C2COC3(CCN(C(=O)O[C@H](CO)C(F)(F)F)CC3)C2)c1F (single isomer, unassigned) [Example 71] | 8.52 | 7.54 | 17800 1/s per M |
| CN(C(=O)Cc1ccccc1)C1CC2(CCN(C(=O)O[C@H](CO)C(F)(F)F)CC2)C1 [Example 44, (2R)-1,1,1-trifluoro-3-hydroxypropan-2-yl 2-[methyl(phenylacetyl)amino]-7-azaspiro[3.5]nonane-7-carboxylate] | 8.40 | 7.40 | 13800 1/s per M |
| O=C(O[C@H](CO)C(F)(F)F)N1CCC2(CC1)CC(c1ccc(C(F)F)nc1)CO2 (single isomer, unassigned) [Example 37] | 8.10 | 7.24 | 3840 1/s per M |
| O=C(O[C@H](CO)C(F)(F)F)N1CCC2(CC1)CC(Cn1cc(C(F)(F)F)cn1)CO2 (single isomer, unassigned) [Example 4] | 8.10 | 7.19 | 4710 1/s per M |
| CN(C(=O)C1CC(F)(F)C1)[C@H]1COC2(CCN(C(=O)O[C@H](CO)C(F)(F)F)CC2)C1 [Example 58, (2R)-1,1,1-trifluoro-3-hydroxypropan-2-yl (3R)-3-{[(3,3-difluorocyclobutyl)carbonyl](methyl)amino}-1-oxa-8-azaspiro[4.5]decane-8-carboxylate] | 7.68 | 6.77 | 1810 1/s per M |
| O=C(O[C@H](CO)C(F)(F)F)N1CCC2(CC1)CC(Oc1ccc(C(F)F)cn1)C2 [Example 85, (2R)-1,1,1-trifluoro-3-hydroxypropan-2-yl 2-{[5-(difluoromethyl)pyridin-2-yl]oxy}-7-azaspiro[3.5]nonane-7-carboxylate] | 9.22 | 8.40 | 42100 1/s per M |
| O=C(O[C@H](CO)C(F)(F)F)N1CCC2(CC1)CC(c1ccc(C(F)F)cn1)CO2 (single isomer, unassigned) [Example 39] | 8.30 | 7.37 | 5180 1/s per M |
| O=C(O[C@H](CO)C(F)(F)F)N1CCC2(CC1)CC(c1c(F)cccc1F)CO2 (single isomer, unassigned) [Example 32] | 9.40 | 8.30 | 233000 1/s per M |
| N#Cc1cccc(C2CC3(CCN(C(=O)O[C@H](CO)C(F)(F)F)CC3)C2)c1 [Example 46, (2R)-1,1,1-trifluoro-3-hydroxypropan-2-yl 2-(3-cyanophenyl)-7-azaspiro[3.5]nonane-7-carboxylate] | 9.00 | 8.40 | 167000 1/s per M |
